Here are results for two compounds from PMC4883067 (Pharmacognosy Magazine, 2016).

The target in data set [1] is T1, rat brain MAO-B (Rattus norvegicus, UniProt P19643).
T1 sequence (P19643 1-520): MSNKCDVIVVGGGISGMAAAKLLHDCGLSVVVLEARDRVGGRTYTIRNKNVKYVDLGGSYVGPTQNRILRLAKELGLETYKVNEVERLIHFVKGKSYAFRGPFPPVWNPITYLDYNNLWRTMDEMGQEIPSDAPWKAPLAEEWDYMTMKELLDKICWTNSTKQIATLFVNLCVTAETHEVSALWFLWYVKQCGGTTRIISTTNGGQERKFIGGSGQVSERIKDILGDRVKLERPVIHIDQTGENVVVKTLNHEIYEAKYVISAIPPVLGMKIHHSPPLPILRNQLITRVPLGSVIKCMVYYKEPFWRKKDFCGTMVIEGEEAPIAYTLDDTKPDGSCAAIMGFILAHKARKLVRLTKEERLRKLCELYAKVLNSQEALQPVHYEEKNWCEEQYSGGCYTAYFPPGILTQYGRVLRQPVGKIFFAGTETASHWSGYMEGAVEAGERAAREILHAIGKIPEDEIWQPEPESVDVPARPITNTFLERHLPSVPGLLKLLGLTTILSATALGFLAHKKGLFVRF
Put plainly: Inhibition of MAO-B activity in rat brain crude mitochondrial fraction. In kind it is biochemical.

Data set [2] has as its target T1, rat brain MAO-B. Put plainly: Kinetics of monoamine oxidase inhibition. In kind it is biochemical. The following applies: for Mechanism of inhibition: MAO-B, substrate benzylamine, Lineweaver-Burk.
The conditions of data set [3]: cited from earlier work.

The IC50 is the concentration at which inhibition is half-maximal. Read a low IC50 as higher potency. On rat brain MAO-B [1], `COc1cc(C=CC(=O)CC(=O)C=Cc2ccc(O)c(OC)c2)ccc1O` [Curcumin, 1,7-bis-(4-hydroxy-3-methoxyphenyl)-hepta-1,6-diene-3,5-dione] displayed a half-inhibitory concentration (IC50) of 500 nM. For the same compound, on rat brain MAO-B [2], the Mechanism of inhibition result was “noncompetitive”. Further, in data set [3], the pKa value is listed as 8.54.
With `O=c1oc2c(O)c(O)cc3c(=O)oc4c(O)c(O)cc1c4c23` [Ellagic acid], the IC50 on rat brain MAO-B [1] was determined as 412 nM. Further, the Mechanism of inhibition entry at rat brain MAO-B [2] was “Competitive”. For the same compound, the “Vmax (remained constant)” value on rat brain MAO-B [2] (ellagic acid, 200–600 μg/ml as printed, benzylamine 5-15 mM) amounted to 8.40 nM/min.
